Experimental data as given in patent publication US10144742B2 (Millennium Pharmaceuticals, Inc., priority 2014, dated 2018).

Tests used:
PC3 cells = assay: PC3 growth inhibition (Cell-titer glo, 72 hours); assay type: cell-based; details: Homo sapiens, PC-3; compound concentration 1.667 μM; PC3 cells, 72 hours, Cell-titer glo; read-out: Percent Inhibition (PC3 growth inhibition)
Summary of the method: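 PC3 cells in RPMI1640 seeded overnight at 37 °C, 5% CO2, then exposed to compound diluted in AIM serum-free medium for 72 h. Viability by CellTiter-Glo luminescence vs DMSO controls; single-concentration % remaining viability (1 μM or 1.667 μM), or GI50/LD50 from curves.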

hNAMPT protein = hNAMPT protein (Homo sapiens (Human), UniProt P43490); assay: NAMPT enzyme assay (TR-FRET/HTRF, BodiPY ligand, anti 6His-Tb); assay type: binding; details: for inhibition at 1 µM: NAMPT inhibition at compound concentration 1 μM, read-out: Percent Inhibition; for IC50: NAMPT inhibition, IC50 range class, read-out: IC50
Summary of the method: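 TR-FRET binding assay in which His-tagged human NAMPT with anti-6His-Tb is displaced by compound from a BodiPY ligand, incubated 1 h at rt in the dark. Excitation was at 320 nm, with the 520/486 nm emission ratio read. IC50 was fitted from inhibition relative to DMSO controls.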

hNAMPT protein, sequence (P43490 whole entry): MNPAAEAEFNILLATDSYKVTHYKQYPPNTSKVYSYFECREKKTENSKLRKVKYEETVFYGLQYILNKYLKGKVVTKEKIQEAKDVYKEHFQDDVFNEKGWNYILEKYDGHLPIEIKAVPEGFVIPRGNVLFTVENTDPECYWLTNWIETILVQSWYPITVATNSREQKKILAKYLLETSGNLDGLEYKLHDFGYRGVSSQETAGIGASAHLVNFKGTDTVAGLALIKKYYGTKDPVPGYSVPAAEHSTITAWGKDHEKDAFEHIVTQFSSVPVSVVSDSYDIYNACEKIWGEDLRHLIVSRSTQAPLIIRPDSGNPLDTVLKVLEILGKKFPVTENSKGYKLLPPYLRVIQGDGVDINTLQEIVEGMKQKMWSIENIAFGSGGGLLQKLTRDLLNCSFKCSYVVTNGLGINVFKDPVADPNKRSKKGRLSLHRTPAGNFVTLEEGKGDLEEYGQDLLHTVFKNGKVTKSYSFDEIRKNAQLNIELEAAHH

Cc1ccc(C#N)cc1-c1nc2cc(C(=O)NCCCc3ncc[nH]3)ccc2nc1-c1ccc(F)cc1 [Compound I-472, 3-(5-cyano-2-methylphenyl)-2-(4-fluorophenyl)-N-[3-(1H-imidazol-2-yl)propyl]quinoxaline-6-carboxamide]
inhibition at 1.667 µM (PC3 cells): 2%
inhibition at 1 µM (hNAMPT protein): 98%
IC50 (hNAMPT protein): < 100 nM

Cc1ccc(-c2nc3cc(C(=O)NCCCc4ncc[nH]4)ccc3nc2-c2ccc(F)cc2)s1 [Compound I-473, 2-(4-fluorophenyl)-N-[3-(1H-imidazol-2-yl)propyl]-3-(5-methyl-2-thienyl)quinoxaline-6-carboxamide]
inhibition at 1.667 µM (PC3 cells): 3%
inhibition at 1 µM (hNAMPT protein): 85%
IC50 (hNAMPT protein): 100 to 500 nM

O=C(NCCCc1ncc[nH]1)c1ccc2nc(-c3ccc(F)cc3)c(-c3ccc(F)c(F)c3)nc2c1 [Compound I-474, 3-(3,4-difluorophenyl)-2-(4-fluorophenyl)-N-[3-(1H-imidazol-2-yl)propyl]quinoxaline-6-carboxamide]
inhibition at 1.667 µM (PC3 cells): 3%
inhibition at 1 µM (hNAMPT protein): 95%
IC50 (hNAMPT protein): 100 to 500 nM

Cc1nn(C)cc1-c1nc2cc(C(=O)NCCCc3ncc[nH]3)ccc2nc1-c1ccc(F)cc1 [Compound I-475, 3-(1,3-dimethyl-1H-pyrazol-4-yl)-2-(4-fluorophenyl)-N-[3-(1H-imidazol-2-yl)propyl]quinoxaline-6-carboxamide]
inhibition at 1.667 µM (PC3 cells): 3%
inhibition at 1 µM (hNAMPT protein): 77%
IC50 (hNAMPT protein): 100 to 500 nM

O=C(NCCCc1ncc[nH]1)c1ccc2nc(Cc3ccc(Cl)cc3)c(-c3ccc(F)cc3)nc2c1 [Compound I-476]
inhibition at 1.667 µM (PC3 cells): 3%
inhibition at 1 µM (hNAMPT protein): 88%
IC50 (hNAMPT protein): 100 to 500 nM

O=C(NCCCc1ncc[nH]1)c1ccc2nc(-c3ccccc3)c(-c3cccs3)nc2c1 [Compound I-477, N-[3-(1H-imidazol-2-yl)propyl]-2-phenyl-3-(2-thienyl)quinoxaline-6-carboxamide]
inhibition at 1.667 µM (PC3 cells): 2%
inhibition at 1 µM (hNAMPT protein): > 99%
IC50 (hNAMPT protein): < 100 nM

CC(C)COc1nc2ccc(C(=O)NCCCc3ncc[nH]3)cc2nc1-c1ccc(F)cc1 [Compound I-478, 3-(4-fluorophenyl)-N-[3-(1H-imidazol-2-yl)propyl]-2-isobutoxyquinoxaline-6-carboxamide]
inhibition at 1.667 µM (PC3 cells): 2%
inhibition at 1 µM (hNAMPT protein): 96%
IC50 (hNAMPT protein): < 100 nM

Nc1ccc(-c2nc3cc(C(=O)NCCCc4ncc[nH]4)ccc3nc2-c2ccc(F)cc2)cc1 [Compound I-479, 3-(4-aminophenyl)-2-(4-fluorophenyl)-N-[3-(1H-imidazol-2-yl)propyl]quinoxaline-6-carboxamide]
inhibition at 1.667 µM (PC3 cells): 3%
inhibition at 1 µM (hNAMPT protein): 75%
IC50 (hNAMPT protein): 100 to 500 nM

O=C(NCCCc1ncc[nH]1)c1ccc2nc(-c3ccc(F)cc3)c(-c3cc(Cl)ccc3F)nc2c1 [Compound I-480, 3-(5-Chloro-2-fluoro-phenyl)-2-(4-fluorophenyl)-N-[3-(1H-imidazol-2-yl)propyl]quinoxaline-6-carboxamide]
inhibition at 1.667 µM (PC3 cells): 1%
inhibition at 1 µM (hNAMPT protein): 100%
IC50 (hNAMPT protein): < 100 nM

COc1ccc(F)c(-c2nc3cc(C(=O)NCCCc4ncc[nH]4)ccc3nc2-c2ccc(F)cc2)c1 [Compound I-481, 3-(2-fluoro-5-methoxyphenyl)-2-(4-fluorophenyl)-N-[3-(1H-imidazol-2-yl)propyl]quinoxaline-6-carboxamide]
inhibition at 1.667 µM (PC3 cells): 2%
inhibition at 1 µM (hNAMPT protein): 98%
IC50 (hNAMPT protein): < 100 nM

CC(C)Oc1nc2ccc(C(=O)NCCCc3c[nH]cn3)cc2nc1-c1ccc(F)cc1 [Compound I-482, 3-(4-Fluorophenyl)-N-[3-(1H-imidazol-4-yl)propyl]-2-isopropoxyquinoxaline-6-carboxamide]
inhibition at 1.667 µM (PC3 cells): 2%
inhibition at 1 µM (hNAMPT protein): 72%
IC50 (hNAMPT protein): 100 to 500 nM

O=C(NCCCc1ncc[nH]1)c1ccc2nc(-c3ccc(Cl)s3)c(-c3ccc(F)cc3)nc2c1 [Compound I-483, 2-(5-chloro-2-thienyl)-3-(4-fluorophenyl)-N-[3-(1H-imidazol-2-yl)propyl]quinoxaline-6-carboxamide]
inhibition at 1.667 µM (PC3 cells): 2%
inhibition at 1 µM (hNAMPT protein): 77%
IC50 (hNAMPT protein): 100 to 500 nM

COc1cccc(-c2nc3cc(C(=O)NCCCc4ncc[nH]4)ccc3nc2-c2ccc(F)cc2)c1 [Compound I-484, 2-(4-fluorophenyl)-N-[3-(1H-imidazol-2-yl)propyl]-3-(3-methoxyphenyl)quinoxaline-6-carboxamide]
inhibition at 1.667 µM (PC3 cells): 2%
inhibition at 1 µM (hNAMPT protein): 99%
IC50 (hNAMPT protein): < 100 nM

C[C@@H]1CN(c2nc3ccc(C(=O)NCCCc4ccc(N)nc4)cc3nc2-c2ccc(F)cc2)C[C@H](C)O1 [Compound I-485, N-[3-(6-aminopyridin-3-yl)propyl]-2-[cis-2,6-dimethylmorpholin-4-yl]-3-(4-fluorophenyl)quinoxaline-6-carboxamide]
inhibition at 1.667 µM (PC3 cells): 2%
inhibition at 1 µM (hNAMPT protein): 96%
IC50 (hNAMPT protein): < 100 nM

Cc1ccc(-c2nc3cc(C(=O)NCCCc4ncc[nH]4)ccc3nc2-c2ccc(F)cc2)cn1 [Compound I-486, 2-(4-fluorophenyl)-N-[3-(1H-imidazol-2-yl)propyl]-3-(6-methylpyridin-3-yl)quinoxaline-6-carboxamide]
inhibition at 1.667 µM (PC3 cells): 2%
inhibition at 1 µM (hNAMPT protein): 78%
IC50 (hNAMPT protein): 100 to 500 nM

O=C(NCc1ccc2nccn2c1)c1ccc2nc(-c3ccc(Cl)cc3)c(-c3ccc(Cl)cc3)nc2c1 [Compound I-487, 2,3-bis(4-chlorophenyl)-N-(imidazo[1,2-a]pyridin-6-ylmethyl)quinoxaline-6-carboxamide]
inhibition at 1.667 µM (PC3 cells): 1%
inhibition at 1 µM (hNAMPT protein): 70%
IC50 (hNAMPT protein): 100 to 500 nM

COc1cc(-c2nc3cc(C(=O)NCCCc4ncc[nH]4)ccc3nc2-c2ccc(F)cc2)ccc1F [Compound I-488, 3-(4-fluoro-3-methoxyphenyl)-2-(4-fluorophenyl)-N-[3-(1H-imidazol-2-yl)propyl]quinoxaline-6-carboxamide]
inhibition at 1.667 µM (PC3 cells): 2%
inhibition at 1 µM (hNAMPT protein): 98%
IC50 (hNAMPT protein): < 100 nM

O=C(NCCCc1ncc[nH]1)c1ccc2nc(OCCc3ccccn3)c(-c3ccc(F)cc3)nc2c1 [Compound I-489, 3-(4-fluorophenyl)-N-[3-(1H-imidazol-2-yl)propyl]-2-[2-(pyridin-2-yl)ethoxy]quinoxaline-6-carboxamide]
inhibition at 1.667 µM (PC3 cells): 2%
inhibition at 1 µM (hNAMPT protein): > 99%
IC50 (hNAMPT protein): < 100 nM

O=C(NCCCc1ncc[nH]1)c1ccc2nc(OCC3CC3)c(-c3ccc(F)cc3)nc2c1 [Compound I-490, 2-(cyclopropylmethoxy)-3-(4-fluorophenyl)-N-[3-(1H-imidazol-2-yl)propyl]quinoxaline-6-carboxamide]
inhibition at 1.667 µM (PC3 cells): 2%
inhibition at 1 µM (hNAMPT protein): 95%
IC50 (hNAMPT protein): < 100 nM

CC(C)Oc1nc2cc(F)c(C(=O)NCCCc3ncc[nH]3)cc2nc1-c1ccc(F)cc1 [Compound I-491, N-(3-(1H-imidazol-2-yl)propyl)-7-fluoro-3-(4-fluorophenyl)-2-isopropoxyquinoxaline-6-carboxamide]
inhibition at 1.667 µM (PC3 cells): 4%
inhibition at 1 µM (hNAMPT protein): 83%
IC50 (hNAMPT protein): 100 to 500 nM

COc1ccc(F)c(-c2nc3cc(C(=O)NCCCc4ncc[nH]4)ccc3nc2OC(C)C)c1 [Compound I-492, 3-(2-fluoro-5-methoxyphenyl)-N-[3-(1H-imidazol-2-yl)propyl]-2-isopropoxyquinoxaline-6-carboxamide]
inhibition at 1.667 µM (PC3 cells): 3%
inhibition at 1 µM (hNAMPT protein): 94%
IC50 (hNAMPT protein): < 100 nM

Cc1ccc(Cl)cc1-c1nc2cc(C(=O)NCCCc3ncc[nH]3)ccc2nc1-c1ccc(F)cc1 [Compound I-493, 3-(5-chloro-2-methylphenyl)-2-(4-fluorophenyl)-N-[3-(1H-imidazol-2-yl)propyl]quinoxaline-6-carboxamide]
inhibition at 1.667 µM (PC3 cells): 1%
inhibition at 1 µM (hNAMPT protein): 98%
IC50 (hNAMPT protein): < 100 nM

Cc1ncsc1-c1nc2cc(C(=O)NCCCc3ncc[nH]3)ccc2nc1-c1ccc(F)cc1 [Compound I-494, 2-(4-fluorophenyl)-N-[3-(1H-imidazol-2-yl)propyl]-3-(4-methyl-1,3-thiazol-5-yl)quinoxaline-6-carboxamide]
inhibition at 1.667 µM (PC3 cells): 3%
inhibition at 1 µM (hNAMPT protein): > 99%
IC50 (hNAMPT protein): < 100 nM

N#CCCOc1nc2ccc(C(=O)NCCCc3ncc[nH]3)cc2nc1-c1ccc(F)cc1 [Compound I-496, 2-(2-cyanoethoxy)-3-(4-fluorophenyl)-N-[3-(1H-imidazol-2-yl)propyl]quinoxaline-6-carboxamide]
inhibition at 1.667 µM (PC3 cells): > 99%
inhibition at 1 µM (hNAMPT protein): 70%
IC50 (hNAMPT protein): 100 to 500 nM

Cc1ccc(-c2nc3cc(C(=O)NCCCc4ncc[nH]4)ccc3nc2-c2ccc(F)cc2)cc1 [Compound I-497, 2-(4-fluorophenyl)-N-[3-(1H-imidazol-2-yl)propyl]-3-(4-methylphenyl)quinoxaline-6-carboxamide]
inhibition at 1.667 µM (PC3 cells): 2%
inhibition at 1 µM (hNAMPT protein): 80%
IC50 (hNAMPT protein): 100 to 500 nM

O=C(NCCCc1ncc[nH]1)c1ccc2nc(OCc3cccc(Cl)c3)c(-c3ccc(F)cc3)nc2c1 [Compound I-498, 2-[(3-chlorobenzyl)oxy]-3-(4-fluorophenyl)-N-[3-(1H-imidazol-2-yl)propyl]quinoxaline-6-carboxamide]
inhibition at 1.667 µM (PC3 cells): 3%
inhibition at 1 µM (hNAMPT protein): 84%
IC50 (hNAMPT protein): < 100 nM

O=C(NCCCc1ncc[nH]1)c1ccc2nc(-c3ccc(F)cc3)c(-c3ccc(Cl)s3)nc2c1 [Compound I-499, 3-(5-chloro-2-thienyl)-2-(4-fluorophenyl)-N-[3-(1H-imidazol-2-yl)propyl]quinoxaline-6-carboxamide]
inhibition at 1.667 µM (PC3 cells): 2%
inhibition at 1 µM (hNAMPT protein): 98%
IC50 (hNAMPT protein): < 100 nM
